Assay [1] has as its target T1, PH domain of GRP (Mus musculus, UniProt O08967).
T1 sequence (O08967 239-399): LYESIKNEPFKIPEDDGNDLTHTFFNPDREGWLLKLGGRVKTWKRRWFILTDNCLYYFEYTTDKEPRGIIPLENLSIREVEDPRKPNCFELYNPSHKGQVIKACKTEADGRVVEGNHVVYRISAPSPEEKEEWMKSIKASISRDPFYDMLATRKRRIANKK
Description: Competition for [3H]dioctanoyl PtdIns(3,4,5)P3 binding to the PH domain of GRP. On the set-up: GST fused to the PH region of GRP (amino acids 239-399); made in house; host or cells: bacteria. The settings on record: dioctanoyl. The protocol:
Binding assays were performed as described in (Rameh, L. E. et al., J. Biol. Chem., In Press). Briefly, GST fused to the PH region of GRP (amino acids 239-399) was bound to glutathione immobilized on agarose beads (Sigma). Synthetic [^3 H]-labeled diotanoyl PtdIns(3,4,5)P3 was added, and after one hour the beads were separated from the supernatant by centrifugation. The amount of [^3 H]-PtdIns(3,4,5)P3 bound to the PH domain was calculated by subtracting the amount of free [^3 H] present in supernatants from GST-GRP from the amount of free [^3 H] in supernatants from control GST. The data was fitted to the equation [bound]=Bmax×[free]/(KD + [free]) by least squares curve fit. For the competition assays the beads containing the GST-fusion proteins were incubated with 2.5 μM[^3 H]-labeled dioctanoyl PtdIns(3,4,5)P3 bound was calculated based on the amount of [^3 H] bound to the beads in the absence of competitor. The total [^3 H] bound to the GST control was less then 0.5% of the total [^3 H] bound to GRP PH domain. The data was fitted to the equation % bound=100-n×L/Klapp +L) where n is the % specific binding, L is the concentration of unlabeled lipid added and Klapp is the apparent competitive dissociation constant. The rations of the apparent dissociation constants accurately reflect the ratios of the true dissociation constants under the present experimental conditions (Rameh, L. E. et al., J. Biol. Chem., In Press).
The data depicted in FIG. 8 indicate that receptor signaling through PI3-kinases, which generates PtdIns(3,4,5)P3, may specifically regulate ARF proteins through GRP. In order to further test this, the relative binding affinities of PtdIns(3,4,5)P3 versus PtdIns (4,5)P2, which is constitutively present in cell membranes, for the PH domain of GRP were determined. A GST fusion protein of the PH domain of GRP was incubated with various concentrations of synthetic [^3 H]dioctanoyl PtdIns(3,4,5)P3 and binding was determined (FIG. 9A). These experiments show high affinity binding of this polyphosphoinositide,with a calculated Kd=0.5 μM.

Assay [2] concerns receptor-regulated cell adhesion. The settings on record: cited from earlier work.
Assay [3] has as its target T2, proteins encoded by both brain and adipocyte cDNA clones (GRP) (Mus musculus, UniProt O08967).
T2 construct: lack four residues
T2 sequence (O08967 5-399): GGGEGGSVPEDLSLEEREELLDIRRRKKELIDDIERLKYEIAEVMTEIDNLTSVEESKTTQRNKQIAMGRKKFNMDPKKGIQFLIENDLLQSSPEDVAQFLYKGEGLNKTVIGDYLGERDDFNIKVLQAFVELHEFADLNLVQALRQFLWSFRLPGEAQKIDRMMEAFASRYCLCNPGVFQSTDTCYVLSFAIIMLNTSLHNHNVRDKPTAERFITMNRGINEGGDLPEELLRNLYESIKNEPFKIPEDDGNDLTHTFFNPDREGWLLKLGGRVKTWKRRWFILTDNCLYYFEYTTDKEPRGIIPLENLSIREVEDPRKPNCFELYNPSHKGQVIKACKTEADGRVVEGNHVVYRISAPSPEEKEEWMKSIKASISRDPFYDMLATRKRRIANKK
Briefly: Binding of 32P-labeled phosphoinositides to protein of isolated cDNA clones on nitrocellulose filters (library screen). Particulars: library screening conditions.

The target of assay [4] is T1, PH domain of GRP. Description: Binding specificity of the GRP PH domain for 32P-labeled phosphoinositides (GST-PH on nitrocellulose). Details: species or system murine. Particulars: GST-PH, 25,000 cpm lipid; relative to GST. The protocol: The 3'-phosphatidylinositol probes labeled at the 3' position were generated using GST-p110 PI3-kinase purified from recombinant bacculovirus infected Sf 9 cells, using either purified phosphatidylinositol phosphates or crude brain lipid. Briefly, 20 mg phospholipid in chloroform was dried under N2 and resuspended in […] of buffer containing Tris-HCl pH 7.4, EDTA 1 mM and incubated in […] phopsphorylation media containing 20 mM Tris-HCl pH 7.4, 100 mM NaCl, 10 mM MgCl2, 0.5 mM EGTA. 0.2 mM adenosine, GST-p110 and 5-10 mCi [g-^32 P]ATP (5 Ci/umol). The reaction was carried out for 2 h at room temperature, quenched by addition of 0.2 ml of 1M HCl, followed by 0.5 ml of chloroform:methanol (1:1). The organic phase containing phospholipids was washed 4 times with 0.4 ml of methanol:HCl (1: 1) and stored at -70° C. until use. Just before use, the lipid was dried under a stream of nitrogen with phosphatidyl serine corresponding to a final concentration of 20 mg/ml. The identities of the PI3-P, PI3,4-P2 and PI3,4,5-P3 were confirmed by TLC and HPLC analysis.
To generate the GST fusion proteins, PCR reactions using the primers: […] (SEQ ID NO:9) and […] (SEQ ID NO:10) for the GST-N construct, […] (SEQ ID NO:11) and […] (SEQ ID NO:12) for the GST-Sec7 construct, […] (SEQ ID NO:13) and […] (SEQ ID NO:14) for the GSTPH construct, and […] […] The filters were washed four times with 1 mL assay buffer and counted in a scintillation counter.
In order to determine whether PI(3,4,5)P3 binding could be localized to specific sequences within the GRP structure, GST fusion proteins containing either residues 239 to 399 (PH domain), residues 52 to 260 (Sec7 domain), or residues 5 to 71, full length GRP residues 5-399 were expressed in bacteria and purified on glutathione-conjugated beads. […] 150 pmol of the proteins were spotted on nitrocellulose filters, incubated with [^32 P]PI(3,4,5)P3 and the amount of bound lipid was determined as described. […] Nitrocellulose filters with GST-PH were incubated with 25,000 cpm of each of the phospholipids and the amount of bound lipid determined as described above. […]

Assay [5] concerns the target T3, GRP (Mus musculus, UniProt O08967).
T3 construct: GST (N, cleaved yes); made in house; host or cells: GRP from pGEX-4T; ARF1 from baculovirus-infected Sf-9 cells
T3 sequence (O08967 1-399): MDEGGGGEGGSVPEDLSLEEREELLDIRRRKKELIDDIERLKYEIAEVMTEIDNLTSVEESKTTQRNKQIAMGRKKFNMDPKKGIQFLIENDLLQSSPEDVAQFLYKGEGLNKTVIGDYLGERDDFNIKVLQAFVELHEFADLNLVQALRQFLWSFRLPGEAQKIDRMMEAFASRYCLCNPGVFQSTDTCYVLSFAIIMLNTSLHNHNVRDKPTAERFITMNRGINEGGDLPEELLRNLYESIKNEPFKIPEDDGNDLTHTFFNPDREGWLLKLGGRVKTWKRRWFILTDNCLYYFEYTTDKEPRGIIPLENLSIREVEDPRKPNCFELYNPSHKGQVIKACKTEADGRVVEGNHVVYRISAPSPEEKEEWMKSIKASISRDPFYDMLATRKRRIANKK
Description: Effect of phosphoinositides on GRP-catalyzed ARF1 guanine nucleotide exchange. The settings on record: 25 μM lipid, 0.15 μM GRP. It counts as biochemical.

On to `CCCCCCCC(=O)OC[C@H](COP(=O)(O)O[C@@H]1[C@H](O)[C@H](O)[C@@H](OP(=O)(O)O)[C@H](OP(=O)(O)O)[C@H]1O)OC(=O)CCCCCCC` [dioctanoyl PtdIns(4,5)P2], for which the “apparent affinity lower than that for dioctanoyl PtdIns(3,4,5)P3” value in assay [1] is “about two orders of magnitude lower”.
On to `COC[C@H]1OC(=O)c2coc3c2[C@@]1(C)C1=C(C3=O)[C@@H]2CCC(=O)[C@@]2(C)C[C@H]1OC(C)=O` [wortmannin], for which the receptor-regulated cell adhesion entry in assay [2] is listed as “inhibits receptor-regulated cell adhesion”.
Regarding PI(3)P, the “binding of labeled phosphoinositide to the cDNA clone protein” value in assay [3] is listed as “not”. For the same molecule, in assay [4], the “binding of labeled phosphoinositide to the GRP PH domain” value is given as “failed to bind”.
Consider PtdIns(3,4)P2, for which the “binding of labeled phosphoinositide to the cDNA clone protein” value in assay [3] was “not”. The “stimulation of ARF1 exchange activity in the presence of GRP” value in assay [5] (0.05% cholate and 0.05% CHAPS (low negative charge)) is listed as “little or no effect”; in assay [5] (0.1% cholate (high negative charge)), “stimulated”. The “binding of labeled phosphoinositide to the GRP PH domain” value in assay [4] is given as “failed to bind”.

The values above are taken from patent US6194173A, “Binding proteins for phosphoinositides, GRP1 or general receptor 1 for phophoinositide” (priority 1999, dated 2001).
